Results reported in patent publication US20100029643A1 (ASTRAZENECA AB, priority 2006, published 2010).

Biological target: T1, Edg-1/S1P1 receptor (Homo sapiens, UniProt P21453)
T1 construct: expressed in transfected cells; host or cells: human osteogenic sarcoma U2OS cells: Edg-1 Transfluor U2OS WT Clone #37 (assay I), Edg-1 Transfluor U2OS Clone #3 (assay II)
Experiment: In vitro cell based receptor activation assay - Transfluor assay (assay I or II; beta-arrestin GFP relocalization after S1P stimulation)
Conditions: at 1 μM (titrated with 3.50 μM as top concentration)
Outline: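 U2OS cells overexpressing S1P1 with a beta-arrestin-GFP construct were pre-incubated with compound for 15 min at room temperature, then stimulated with S1P for 45 min at 37 °C. In assay I, final S1P was 375 nM or 750 nM and compound was a 9-point 3-fold series from 100 μM, in 1% DMSO. Cells were fixed and Hoechst-stained, GFP relocalization was imaged, and EC50 values were fitted.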

T1 sequence (P21453 whole entry): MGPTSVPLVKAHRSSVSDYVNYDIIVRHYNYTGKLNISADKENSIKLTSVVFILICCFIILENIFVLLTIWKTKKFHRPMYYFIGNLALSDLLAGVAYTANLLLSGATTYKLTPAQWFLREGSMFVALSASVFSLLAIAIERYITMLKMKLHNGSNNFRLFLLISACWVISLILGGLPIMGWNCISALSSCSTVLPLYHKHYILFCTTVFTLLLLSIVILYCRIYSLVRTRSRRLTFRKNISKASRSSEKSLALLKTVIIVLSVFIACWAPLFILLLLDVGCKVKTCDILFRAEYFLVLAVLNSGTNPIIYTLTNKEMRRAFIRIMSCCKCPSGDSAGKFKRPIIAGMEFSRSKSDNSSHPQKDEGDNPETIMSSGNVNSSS

inhibition at 1 µM [%] | SMILES
91.8 | CCn1c([C@@H](C)NS(=O)(=O)c2ccc(Cl)cc2)nc2cc(F)c(F)c(F)c21 [Example 91, (R)-4-Chloro-N-[1-(1-ethyl-5,6,7-trifluoro-1H-benzoimidazol-2-yl)-ethyl]-benzenesulfonamide]

Same assay, conditions: at 3.50 μM (titrated from top concentration 10 μM)

inhibition at 3.5 µM [%] | SMILES
88.2 | CCn1c([C@@H](C)NS(=O)(=O)c2ccc(Cl)cc2)nc2cnc(C3CC3)cc21 [Example 98, 4-Chloro-N-[(1R)-1-(6-cyclopropyl-1-ethyl-1H-imidazo[4,5-c]pyridin-2-yl)ethyl]benzenesulfonamide]
84.6 | CCn1c([C@H](C)NS(=O)(=O)c2ccc(Cl)cc2)nc2ccc(C(F)(F)F)cc21 [Example 100, 4-Chloro-N-{(1S)-1-[1-ethyl-6-(trifluoromethyl)-1H-benzimidazol-2-yl]ethyl}benzenesulfonamide]
93.8 | CCn1c([C@@H](C)NS(=O)(=O)c2ccc(Cl)cc2)nc2cnccc21 [Example 102, 4-Chloro-N-[(1R)-1-(1-ethyl-1H-imidazo[4,5-c]pyridin-2-yl)ethyl]benzenesulfonamide]
89.4 | CCn1c([C@@H](C)NS(=O)(=O)c2ccc(C#N)cc2)nc2cnccc21 [Example 103, 4-Cyano-N-[(1R)-1-(1-ethyl-1H-imidazol[4,5-c]pyridin-2-yl)ethyl]benzenesulfonamide]
90.3 | CCn1c([C@@H](C)NS(=O)(=O)c2ccc(F)cc2)nc2cnccc21 [Example 104, 4-Fluoro-N-[(1R)-1-(1-ethyl-1H-imidazo[4,5-c]pyridin-2-yl)ethyl]benzenesulfonamide]
93.1 | CCn1c([C@@H](C)NS(=O)(=O)c2ccc(C#N)nc2)nc2ccc(C(F)(F)F)cc21 [Example 105, (R)-6-Cyano-N-(1-(1-ethyl-6-(trifluoromethyl)-1H-benzo[d]imidazol-2-yl)ethyl) pyridine-3-sulfonamide]
93.3 | CCn1c([C@@H](C)NS(=O)(=O)c2ccc(C(N)=O)nc2)nc2ccc(C(F)(F)F)cc21 [Example 106, (R)-5-(N-(1-(1-Ethyl-6-(trifluoromethyl)-1H-benzo[d]imidazol-2-yl)ethyl)sulfamoyl)picolinamide]
92.5 | CCn1c([C@@H](C)NS(=O)(=O)c2ccc(F)nc2)nc2ccc(C(F)(F)F)cc21 [Example 107, (R)-N-(1-(1-Ethyl-6-(trifluoromethyl)-1H-benzo[d]imidazol-2-yl)ethyl)-6-fluoropyridine-3-sulfonamide]
91.8 | CCn1c([C@@H](C)NS(=O)(=O)c2ccc(C)nc2)nc2ccc(C(F)(F)F)cc21 [Example 108, (R)-N-(1-(1-Ethyl-6-(trifluoromethyl)-1H-benzo[d]imidazol-2-yl)ethyl)-6-methylpyridine-3-sulfonamide]
95.6 | CCn1c([C@@H](C)NS(=O)(=O)c2ccc(OC)nc2)nc2ccc(C(F)(F)F)cc21 [Example 109, (R)-N-(1-(1-Ethyl-6-(trifluoromethyl)-1H-benzo[d]imidazol-2-yl)ethyl)-6-methoxypyridine-3-sulfonamide]

The next lines start with the compound.

SMILES | inhibition at 3.5 µM [%]
CCn1c([C@@H](C)NS(=O)(=O)c2ccc(Cl)cc2)nc2ccc(C(F)F)cc21 [Example 69, 4-Chloro-N-{(1R)-1-[6-(difluoromethyl)-1-ethyl-1H-benzimidazol-2-yl]ethyl}benzenesulfonamide] | 85.2
CCn1c([C@@H](C)NS(=O)(=O)c2ccc(Cl)cc2)nc2ccc(C)cc21 [Example 89, 4-Chloro-N-[(1R)-1-(1-ethyl-6-methyl-1H-benzimidazol-2-yl)ethyl]benzenesulfonamide] | 90.7
CCn1c([C@@H](C)NS(=O)(=O)c2ccc(Cl)cc2)nc2c(F)cccc21 [Example 90, 4-Chloro-N-[(1R)-1-(1-ethyl-4-fluoro-1H-benzimidazol-2-yl)ethyl]benzenesulfonamide] | 93.4
CCn1c([C@@H](C)NS(=O)(=O)c2ccc(Cl)cc2)nc2cc(C(F)(F)F)ccc21 [Example 92, 4-Chloro-N-{(1R)-1-[1-ethyl-5-(trifluoromethyl)-1H-benzimidazol-2-yl]ethyl}benzenesulfonamide] | 86.1
CCn1c(C(C)NS(=O)(=O)c2ccc(Cl)cc2)nc2c(OC)nccc21 (centres unmarked) [Example 95, 4-chloro-N-[1-(1-ethyl-4-methoxy-1H-imidazo[4,5-c]pyridin-2-yl)ethyl]benzenesulfonamide] | 47.7

Same assay, conditions: at 3.55 μM

inhibition at 3.55 µM [%] | SMILES
82.6 | CCn1c([C@@H](C)NS(=O)(=O)c2ccc(Cl)cc2)nc2ncc(C(F)(F)F)cc21 [Example 88, 4-Chloro-N-{(1R)-1-[1-ethyl-6-(trifluoromethyl)-1H-imidazo[4,5-b]pyridin-2-yl]ethyl}benzenesulfonamide]

Same assay, conditions: at 3.70 μM (titrated from top concentration 100 μM)

inhibition at 3.7 µM [%] | SMILES
81.7 | CCn1c(C(C)NS(=O)(=O)c2ccc(Cl)cc2)nc2cnc(C(F)(F)F)nc21 (centres unmarked) [Example 96, 4-chloro-N-{1-[9-ethyl-2-(trifluoromethyl)-9H-purin-8-yl]ethyl}benzenesulfonamide]
88.9 | CCn1c([C@@H](C)NS(=O)(=O)c2ccc(Cl)cc2)nc2cnc(Cl)cc21 [Example 97, 4-chloro-N-[(1R)-1-(6-chloro-1-ethyl-1H-imidazo[4,5-c]pyridin-2-yl)ethyl]benzenesulfonamide]
94.5 | CCn1c(C(C)NS(=O)(=O)c2ccc(Cl)cc2)nc2ccc(C(F)(F)F)cc21 (centres unmarked) [Example 99, 4-Chloro-N-{1-[1-ethyl-6-(trifluoromethyl)-1H-benzimidazol-2-yl]ethyl}benzenesulfonamide]

Second part, the compound before the results:

SMILES | inhibition at 3.7 µM [%]
CCn1c([C@@H](C)NS(=O)(=O)c2ccc(Cl)cc2)nc2ccc(F)c(F)c21 [Example 65, 4-Chloro-N-[(1R)-1-(1-ethyl-6,7-difluoro-1H-benzimidazol-2-yl)ethyl]benzenesulfonamide] | 84.2
CCn1c([C@@H](C)NS(=O)(=O)c2ccc(Cl)cc2)nc2cccc(C)c21 [Example 66, 4-Chloro-N-[(1R)-1-(1-ethyl-7-methyl-1H-benzimidazol-2-yl)ethyl]benzenesulfonamide] | 94.6
CCn1c([C@@H](C)NS(=O)(=O)c2ccc(Cl)cc2)nc2ccc(C(N)=O)cc21 [Example 71, 2-(1-{[(4-Chlorophenyl)sulfonyl]amino}-ethyl)-1-ethyl-1H-benz-imidazole-6-carboxamide] | 77.3
CCn1c([C@@H](C)NS(=O)(=O)c2ccc(Cl)cc2)nc2ccc(CN(C)C)cc21 [Example 74, 4-Chloro-N-((1R)-1-{6-[(dimethylamino)methyl]-1-ethyl-1H-benzimidazol-2-yl}ethyl)benzenesulfonamide] | 30.4
CCn1c([C@@H](C)NS(=O)(=O)c2ccc(Cl)cc2)nc2ccc(CN3CCOCC3)cc21 [Example 75, 4-Chloro-N-{(1R)-1-[1-ethyl-6-(morpholin-4-ylmethyl)-1H-benzimidazol-2-yl]ethyl}benzenesulfonamide] | 37.2
CCn1c([C@@H](C)NS(=O)(=O)c2ccc(Cl)cc2)nc2cc(CO)ccc21 [Example 78, 4-Chloro-N-{(1R)-1-[1-ethyl-5-(hydroxymethyl)-1H-benzimidazol-2-yl]ethyl}benzenesulfonamide] | 58.4
CCn1c([C@@H](C)NS(=O)(=O)c2ccc(Cl)cc2)nc2cc(Br)ccc21 [Example 81, N-[(1R)-1-(5-Bromo-1-ethyl-1H-benzimidazol-2-yl)ethyl]-4-chlorobenzenesulfonamide] | 91.6
CCn1c([C@@H](C)NS(=O)(=O)c2ccc(Cl)cc2)nc2cc(-c3cccnc3)ccc21 [Example 82, 4-Chloro-N-[(1R)-1-(1-ethyl-5-pyridin-3-yl-1H-benzimidazol-2-yl)ethyl]benzenesulfonamide] | 10.3
CCn1c([C@@H](C)NS(=O)(=O)c2ccc(Cl)cc2)nc2cc(-c3ccncc3)ccc21 [Example 83, 4-Chloro-N-[(1R)-1-(1-ethyl-5-pyridin-4-yl-1H-benzimidazol-2-yl)ethyl]benzenesulfonamide] | 16.4
CCn1c([C@@H](C)NS(=O)(=O)c2ccc(Cl)cc2)nc2cc(C3CC3)ccc21 [Example 84, 4-Chloro-N-[(1R)-1-(5-cyclopropyl-1-ethyl-1H-benzimidazol-2-yl)ethyl]benzenesulfonamide] | 59.3
CCn1c([C@@H](C)NS(=O)(=O)c2ccc(Cl)cc2)nc2cc(C(F)(F)F)c(Cl)cc21 [Example 85, 4-Chloro-N-{(1R)-1-[6chloro-1-ethyl-5-(trifluoromethyl)-1H-benzimidazol-2-yl]ethyl}benzenesulfonamide] | 44.9
CCn1c([C@@H](C)NS(=O)(=O)c2ccc(Cl)cc2)nc2cccc(Cl)c21 [Example 86, (R)-4-Chloro-N-[1-(7-chloro-1-ethyl-1H-benzoimidazol-2-yl)ethyl]-benzenesulfonamide] | 51.7
CCn1c([C@@H](C)NS(=O)(=O)c2ccc(Cl)cc2)nc2nnc(Cl)cc21 [Example 87, 4-Chloro-N-[(1R)-1-(3-chloro-5-ethyl-5H-imidazo[4,5-c]pyridazin-6-yl)ethyl]benzenesulfonamide] | 62.4
CCn1c([C@@H](C)NS(=O)(=O)c2ccc(Cl)cc2)nc2cc(Br)c(C(F)(F)F)cc21 [Example 93, N-{(1R)-1-[5-Bromo-1-ethyl-6-(trifluoromethyl)-1H-benzimidazol-2-yl]ethyl}-4-chlorobenzenesulfonamide] | 62.3
CCn1c(C(C)NS(=O)(=O)c2ccc(Cl)cc2)nc2c(Cl)nccc21 (centres unmarked) [Example 94, 4-Chloro-N-[1-(4-chloro-1-ethyl-1H-imidazo[4,5-c]pyridin-2-yl)ethyl]benzenesulfonamide] | 91.6
